Patent EP0199302A2, “Contraception in dogs with luteinizing hormone releasing hormone antagonists” (SYNTEX (U.S.A.) INC., priority 1985, dated 1986)

Experiments:
bitch = test: Plasma progesterone and pregnancy outcome in a bitch given daily subcutaneous injections for 7 days (Example 1); format: in vivo, dogs
Excerpt: A bitch was bled and the plasma progesterone measured in nanograms per milliliter versus the day of diestrus. The bitch was bled on day -8 and day -4. The plasma progesterone was 4 to 6 nanograms per milliliter on those two days. At day 1, the plasma progesterone was at 30 nanograms per milliliter and peaked at about 60 on day 9 slowly decreasing to about 30 on day 25. At day 25 the bitch started to receive daily subcutaneous 1 2 3 injections of [N-Ac-D-Nal(2) , D-p-Cl-Phe , D-Trp , D-Deh , D-Ala ] LHRH for 7 days. After the first injection the plasma progesterone level immediately dropped to 4 nanograms per milliliter. At the end of the course of treatment, the level of plasma progesterone was down below 1 nanogram per milliliter. A fetus was expelled the 5th day of treatment and a tissue mass was expelled on day 49, which was 24 days after the start of treatment.

pregnant beagle bitches = test: Effect of time of dosing with two LHRH antagonists on pregnancy in bitches (Example 2, Table 1); format: in vivo, dogs; conditions: daily injection for seven days, 300 µg/kg/day
Experimental: Several pregnant beagle bitches were treated with one of two different LHRH antagonists by subcutaneous injection.

beagle bitch [1] = test: Single subcutaneous injection in a pregnant beagle bitch: plasma progesterone and abortion (Example 3); format: in vivo, dogs; conditions: single subcutaneous injection of 50 mg on the twenty-ninth day of pregnancy
Experimental: A beagle bitch was bred and confirmed to be pregnant by manual palpation of the uterus during the fourth week of gestation. On the twenty-ninth day of pregnancy […] was administered a single subcutaneous injection of an aqueous solution of 50 mg of [N-Ac-D-Nal(2) , D-p-C1-Phe, D-Trp , D-Deh , D-Ala ]LHRH. Immediately before injection the plasma progesterone levels was 19ng/ml and by 24 hours after injection this had declined to 3.3 ng/ml. Plasma levels of progesterone varied thereafter from day to day but were never above 6 ng/ml. Delivery of an abortus was noted on the 36th day of pregnancy.

beagle bitch [2] = test: Termination of estrus in a beagle bitch (Example 4); format: in vivo, dogs; conditions: 300 µg/kg/day for 14 days started on day 2 (entering estrus)
Experimental: A beagle bitch was identified with a slight sanguineous vaginal discharge (day 1 of the experiment). Microscopic evaluation of vaginal cytology confirmed the bitch to be in proestrus. […] She was immediately started on a course of treatment of 300 µg/kg/day for 14 days of [N-Ac-D-Nal(2) , D-p-Cl-Phe , D-Trp , D-Deh ,D-Ala ]LHRH.
The vaginal discharge diminished and was last noted on day 5. By day 6 the bitch was confirmed by vaginal cytology to have reentered diestrus.

pregnant cats = test: Seven-day subcutaneous minipump infusion in pregnant cats: plasma progesterone and pregnancy (Example 5); format: in vivo; conditions: for Plasma level of progesterone: 300 μg/kg/day for seven days
Experimental: Female cats were bred and 15-18 days later were implanted subcutaneously with an Alzet^8 minipump filled with a solution of [N-Ac-D-Nal(2) , D-p-Cl-Phe , D-Trp , D-Deh ,D-Ala ]LHRH in propylene glycol at a concentration sufficient to deliver 300 µg/kg/day. The pumps were removed after seven days. No effect of treatment on circulating levels of progesterone could be discerned in daily plasma samples.

## N-Ac-D-Nal(2)-D-pCL-Phe-D-Trp-Ser-Tyr-D-Deh-Leu-Arg-ProD-Ala
bitch; bitch, daily subcutaneous injections for 7 days starting day 25 of diestrus
  level of plasma progesterone at the end of the course of treatment: below 1 nanogram per milliliter
bitch; bitch, daily subcutaneous injections for 7 days starting day 25 of diestrus, about 30 on day 25 before treatment
  plasma progesterone level after the first injection: 4 nanograms per milliliter
bitch; day of diestrus, 24 days after the start of treatment
  tissue mass expelled, day: 49
Pregnant beagle bitches; dog 1, treatment on days 36-42 of pregnancy
  COMMENT (pregnancy outcome): Aborted on days 39-41 of pregnancy
Pregnant beagle bitches; dog 2, treatment on days 32-38 of pregnancy
  COMMENT (pregnancy outcome): Aborted on day 35 of pregnancy
Beagle bitch [1]; 19ng/ml immediately before injection
  plasma progesterone level 24 hours after injection: 3.3 ng/mL
Beagle bitch [1]; later than 24 hours, varied from day to day
  plasma levels of progesterone thereafter: ≤ 6 ng/mL
Beagle bitch [2]
  attractiveness to stud males: not attractive to stud males
  reentered diestrus confirmed by vaginal cytology, day of the experiment: ≤ 6
  sexual receptivity: no sign of sexual receptivity
  vaginal discharge last noted, day of the experiment: 5
Pregnant cats; Cat 1, day 0 from treatment
  Plasma level of progesterone: 4.0 ng/mL
Pregnant cats; Cat 1, day 1 from treatment
  Plasma level of progesterone: 2.7 ng/mL
Pregnant cats; Cat 1, day 2 from treatment
  Plasma level of progesterone: 4.3 ng/mL
Pregnant cats; Cat 1, day 3 from treatment
  Plasma level of progesterone: 4.0 ng/mL
Pregnant cats; Cat 1, day 4 from treatment
  Plasma level of progesterone: 4.4 ng/mL
Pregnant cats; Cat 1, day 5 from treatment
  Plasma level of progesterone: 3.8 ng/mL
Pregnant cats; Cat 1, day 6 from treatment
  Plasma level of progesterone: 5.7 ng/mL
Pregnant cats; Cat 1, day 7 from treatment
  Plasma level of progesterone: 3.3 ng/mL
Pregnant cats; Cat 1, day 8 from treatment
  Plasma level of progesterone: 6.5 ng/mL
Pregnant cats; Cat 1, day 9 from treatment
  Plasma level of progesterone: 6.7 ng/mL
Pregnant cats; Cat 1, day 10 from treatment
  Plasma level of progesterone: 5.2 ng/mL
Pregnant cats; Cat 1, day -1 from treatment (before treatment)
  Plasma level of progesterone: 2.0 ng/mL
Pregnant cats; Cat 1, day -2 from treatment (before treatment)
  Plasma level of progesterone: 4.5 ng/mL
Pregnant cats; Cat 2, day 0 from treatment
  Plasma level of progesterone: 2.3 ng/mL
Pregnant cats; Cat 2, day 1 from treatment
  Plasma level of progesterone: 4.1 ng/mL
Pregnant cats; Cat 2, day 2 from treatment
  Plasma level of progesterone: 5.2 ng/mL
Pregnant cats; Cat 2, day 3 from treatment
  Plasma level of progesterone: 3.9 ng/mL
Pregnant cats; Cat 2, day 4 from treatment
  Plasma level of progesterone: 4.2 ng/mL
Pregnant cats; Cat 2, day 5 from treatment
  Plasma level of progesterone: 4.2 ng/mL
Pregnant cats; Cat 2, day 6 from treatment
  Plasma level of progesterone: 6.3 ng/mL
Pregnant cats; Cat 2, day 7 from treatment
  Plasma level of progesterone: 5.5 ng/mL
Pregnant cats; Cat 2, day 8 from treatment
  Plasma level of progesterone: 6.1 ng/mL
Pregnant cats; Cat 2, day 9 from treatment
  Plasma level of progesterone: 7.3 ng/mL
Pregnant cats; Cat 2, day 10 from treatment
  Plasma level of progesterone: 6.7 ng/mL
Pregnant cats; Cat 2, day -1 from treatment (before treatment)
  Plasma level of progesterone: 3.0 ng/mL
Pregnant cats; Cat 2, day -2 from treatment (before treatment)
  Plasma level of progesterone: 4.3 ng/mL
Pregnant cats; cats implanted 15-18 days after breeding, minipump 300 µg/kg/day for seven days
  pregnancy outcome: All treated cats continued to normal uneventful term delivery
Pregnant cats; cats implanted 15-18 days after breeding, minipump 300 µg/kg/day for seven days, daily plasma samples
  effect of treatment on circulating levels of progesterone: No effect
